Results from patent US11208385B2, “N-substituted imidazole carboxylate compound, preparation method and use” (priority 2017, dated 2021).
Like-named read-outs stand apart in the source and are kept apart here.

Tests used:
[1] = In vitro degradation experiment in rat liver homogenate (HPLC); format: in vitro ADME; details: for Residual rate at 5 min (%) / Residual rate at 10 min (%) / Residual rate at 20 min (%): rat liver homogenate, 37° C., 50 μg/mL
Protocol: In Vitro Degradation Experiment of Compounds.
Chromatographic condition: mobile phase is methanol: H2O=65:35, and the water phase contains 0.06% ammonium acetate; the flow rate is 1 mL/min; the column temperature is 25° C.
Apparatus: Agilent 1100 Series. Chromatographic column: Aglent Eclipse Plus C18 column, 5 μm 4.6*[…].
The linear range is 1-50 μg/mL.
After fasting for 24 h, male SD rats were treated to collect liver, and the water on the surface of liver was removed using the filter paper, then liver was weighed. […] Then, the homogenate was centrifugated at 10000 g for 20 min at the temperature of 4° C. The supernatant solution was collected, and 14 samples (2 mL) of liver homogenate were taken out and warmed to 37° C. in water bath. Each compound (content 10 mg/mL, 10 μl) was added, respectively, to make a concentration of 50 μg/mL in liver homogenate.
[…] After centrifugation, the supernatant solution was taken out and injected. The concentration of each compound at each time point was detected, that was divided by the initial concentration of each compound, to obtain the degradation ratio of each compound.

[2] = tested on: SD rats
Protocol: 30 male SD rats weighing 250˜300 g were randomly divided into 6 groups, 5 rats for one group. […] Each drug was continually infused to rats via caudal vein, and made the righting reflex abolish, and the abolition of righting reflex was maintained for 1 hour. The wake time after drug withdrawal and the time of full recovery were recorded.

[3] = tested on: SD rats; remark: listed apart in the source
Protocol: 150 male SD rats weighing 250˜300 g were randomly divided into 15 groups, 10 rats for one group. […] Drugs were injected to rats via caudal vein, and the injection time was 15 seconds. The abolition of righting reflex for 30 s or above was used as the indicator producing anaesthetic effect.

[4] = in vivo, 3 mg/kg; cited from earlier work
[5] = target: T1, 11-β hydroxylase (Homo sapiens, UniProt P15538); details: 11-β hydroxylase versus GABAA receptor; cited from earlier work
T1 sequence (P15538 25-503): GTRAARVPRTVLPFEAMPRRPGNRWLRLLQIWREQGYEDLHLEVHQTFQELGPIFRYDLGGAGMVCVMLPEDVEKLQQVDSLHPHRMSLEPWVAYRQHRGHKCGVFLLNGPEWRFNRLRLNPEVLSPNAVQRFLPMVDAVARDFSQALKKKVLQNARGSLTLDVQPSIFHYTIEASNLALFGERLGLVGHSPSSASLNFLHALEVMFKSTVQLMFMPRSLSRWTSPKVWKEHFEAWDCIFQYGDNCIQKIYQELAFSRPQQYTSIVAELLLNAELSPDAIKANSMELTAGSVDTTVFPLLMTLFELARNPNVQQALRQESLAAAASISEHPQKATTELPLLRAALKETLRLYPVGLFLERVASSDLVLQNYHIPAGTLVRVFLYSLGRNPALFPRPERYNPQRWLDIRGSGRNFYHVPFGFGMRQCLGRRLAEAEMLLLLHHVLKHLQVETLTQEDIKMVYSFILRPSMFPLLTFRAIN

[6] = tested on: corticosterone; assay: Serum corticosterone after dexamethasone suppression and ACTH stimulation in rats (ELISA); details: ACTH stimulation
Protocol: Male rats (250˜300 g) were chosen as test animals, and the content of corticosterone in serum of rats was measured using ELISA kit and ELISA reader. 65 SD rats were randomly divided into 13 groups, five rats for each group. […] 30 min After administration of ACTH, the concentrations of two cortical hormones in animal body were determined.

[7] = after 1 h continual infusion, from recovery of righting reflex to free walk
[8] = after 1 h continual infusion, recovery time of righting reflex after discontinuance
[9] = single iv dose of 2ED50, 10 rats per group
[10] = single iv dose of 2ED50, from abolition to recovery of righting reflex
[11] = single iv dose of 2ED50, from recovery of righting reflex to free walk

| SMILES | Residual rate at 5 min (%) [1] | Residual rate at 10 min (%) [1] | Residual rate at 20 min (%) [1] | Time of complete recovery [2, 7] | Wake time after drug withdrawal [2, 8] | Incidence rate (%) of muscle tremor ([2]; continual infusion for 1 h) | Incidence rate (%) of muscle tremor [3, 9] | Time of keeping anaesthesia [3, 10] | Time of complete recovery [3, 11] | other results |
| --- | --- | --- | --- | --- | --- | --- | --- | --- | --- | --- |
| COC(=O)C1(OC(=O)c2cncn2[C@H](C)c2ccccc2)CC1 [CPMM, reference compound] | 0% | 0% | 0% | – | – | – | – | – | – | Incidence rate (%) of muscle tremor ([2]; male, SD, rat, in vivo): 90%; Time of complete recovery ([2]; rat, in vivo): 25 ± 9 min; Wake time after drug withdrawal ([2]; rat, in vivo): 12 ± 7 min; Incidence rate (%) of muscle tremor ([3]; male, SD, rat, in vivo, iv): 80%; Onset of anaesthesia ([3]; rat, in vivo): immediately anesthetize the rats; Time of complete recovery ([3]; rat, in vivo, iv): 2.3 ± 2.1 min; Time of keeping anaesthesia ([3]; rat, in vivo, iv): 2.5 ± 1.3 min |
| CCOC(=O)c1cncn1[C@H](C)c1ccccc1 [Etomidate, reference compound] | 97.9% | 95.9% | 95.9% | 85 ± 29 min | 18 ± 10 min | 60% | 40% | 6.3 ± 2.8 min | 7.2 ± 1.7 min | Minimum effective concentration producing anaesthetic effect in plasma [4]: 200 ng/mL; Minimum effective concentration to inhibit the synthesis of cortical hormones [4]: 8 ng/mL; Time of maintaining the drug concentration of >8 ng/mL in plasma [4]: 8 h; Time of maintaining the drug concentration of >200 ng/mL in plasma [4]: 8 min; Combining capacity with 11-β hydroxylase relative to GABAA receptor [5]: 100 times; Decomposition under the action of liver homogenate of rats ([1]; comparative experiment): slowly decomposed; Effect on self-synthesis of adrenal cortical hormones [6]: significantly suppress; Onset of anaesthesia ([3]; equivalent dose of anesthesia): immediately anesthetize the rats |
| COC(=O)OCOC(=O)c1cncn1[C@H](C)c1ccccc1 [Example 1] | 0% | 0% | 0% | 4.1 ± 1.1 min | 2.1 ± 1.1 min | 0% | 0% | 1.5 ± 0.6 min | 1.4 ± 0.5 min | – |
| CCOC(=O)OCOC(=O)c1cncn1[C@H](C)c1ccccc1 [Example 2] | 0% | 0% | 0% | 3.1 ± 1.8 min | 3.1 ± 1.2 min | 0% | 0% | 1 ± 0.5 min | 2.5 ± 0.4 min | – |
| CC(C)OC(=O)OCOC(=O)c1cncn1[C@H](C)c1ccccc1 [Example 3] | 0% | 0% | 0% | 1.9 ± 0.9 min | 3.4 ± 1.1 min | 0% | 0% | 2.1 ± 0.3 min | 1.3 ± 0.5 min | – |
| C[C@H](c1ccccc1)n1cncc1C(=O)OCOC(=O)OC(C)(C)C [Example 4] | 89.3% | 60.1% | 43.6% | 90 ± 37 min | 25 ± 24 min | 20% | 0% | 8.3 ± 1.4 min | 6.1 ± 1.6 min | – |
| CC(C)COC(=O)OCOC(=O)c1cncn1[C@H](C)c1ccccc1 [Example 5] | 0% | 0% | 0% | 3.9 ± 2.6 min | 6.2 ± 1.2 min | 10% | 10% | 3 ± 1.1 min | 3.3 ± 2.1 min | – |
| CCC(C)OC(=O)OCOC(=O)c1cncn1[C@H](C)c1ccccc1 (stereo partly shown) [Example 6] | 4.7% | 0.9% | 0% | 2.1 ± 1.5 min | 3.1 ± 1.9 min | 0% | 0% | 2.4 ± 0.6 min | 1.7 ± 0.4 min | – |
| CC(C)OC(=O)OC(C)OC(=O)c1cncn1[C@H](C)c1ccccc1 (stereo partly shown) [Example 8] | 2.1% | 0% | 0% | 1.8 ± 0.6 min | 4.9 ± 2.7 min | 10% | 10% | 2.3 ± 0.3 min | 1.9 ± 1^ min | – |
| C[C@H](c1ccccc1)n1cncc1C(=O)OCOC(=O)OC(C(F)(F)F)C(F)(F)F [Example 9] | 72.1% | 50.3% | 39.8% | 55 ± 38 min | 20 ± 14 min | 0% | 0% | 8.1 ± 2.3 min | 7.2 ± 2.9 min | – |
| CCC(C)OC(=O)OCOC(=O)c1cncn1[C@H](C)c1ccccc1.Cl (stereo partly shown) [Example 10] | – | – | – | – | – | – | 0% | 2.5 ± 0.7 min | 2.0 ± 0.9 min | – |
| CCC(C)OC(=O)OCOC(=O)c1cncn1[C@H](C)c1ccccc1 (stereo partly shown) [Example 11] | – | – | – | – | – | – | 0% | 2.8 ± 1.1 min | 2.1 ± 1.2 min | – |
| CC(C)OC(=O)OCOC(=O)c1cncn1[C@H](C)c1ccccc1 [Example 12] | – | – | – | – | – | – | 0% | 2.2 ± 0.5 min | 1.2 ± 0.6 min | – |
| CC[C@@H](C)OC(=O)OCOC(=O)c1cncn1[C@H](C)c1ccccc1 [Example 16] | 3.2% | 0% | 0% | 2.1 ± 0.5 min | 4.5 ± 2.2 min | 0% | 0% | 3.1 ± 0.4 min | 2.1 ± 0.5 min | – |
| CC[C@H](C)OC(=O)OCOC(=O)c1cncn1[C@H](C)c1ccccc1 [Example 17] | 3.1% | 0% | 0% | – | – | – | 0% | 2.2 ± 0.3 min | 1.6 ± 0.2 min | – |
| CCC(OC(=O)OC(C)C)OC(=O)c1cncn1[C@H](C)c1ccccc1 (stereo partly shown) [Example 28] | 5.3% | 0% | 0% | 22.5 ± 4.8 min | 10.1 ± 2.3 min | 0% | 0% | 3.5 ± 1.1 min | 2.1 ± 0.5 min | – |
| COC(=O)CCOC(=O)c1cncn1[C@H](C)c1ccccc1 [MOC-ET, reference compound] | 0% | 0% | 0% | – | – | – | – | – | – | Cortex function of test animals after drug withdrawal ([6]; 30 min after drug withdrawal): obviously recovered |
